Source: patent publication US8298582B2, “Polysaccharide-based impregnated solid material with improved stability, processes for the preparation thereof and impregnating solutions used” (Hydro-Quebec, priority 2006, dated 2012)

Columns and labels:
[1] = Resistance to leaching, modified AWPA procedure E11-06 (5 faces protected); assay type: physicochemical
Experimental: This technique is based on AWPA protocol E11-06. The blocks are soaked in demineralized water at ambient temperature. Water samples are taken regularly and an analysis by ICP spectrometry is carried out (after dilution of the solution by a factor of 250) in order to evaluate the amount of boron present in the solution. The results are represented in FIGS. 5 and 5′.

Postia placenta = assay: Soil-block culture test, AWPA protocol E10-06, on leached treated wood blocks; assay type: cell-based; conditions: after 20 weeks of exposure, red pine sapwood blocks leached one week before the test
Experimental: (§1) Tests for evaluating the degradation-resistance of the wood according to various treatments were carried out by following AWPA protocol E10-06. These tests were carried out using two brown rots: Postia placenta and Gleophyllum trabeum.
(§2) These two preparations are used to treat blocks of 19 mm×19 mm×19 mm of red pine sapwood by means of a partial vacuum of −65 cmHg maintained for 30 minutes. This type of solution forms a gel in the cells of the wood after a period of one hour. In order to accelerate the crosslinking process and to allow drying, the blocks are heated overnight at 60° C.
(§3) In order to validate the capacity of our treatment to retain the boron in the wood and to play its role of wood-preserving agent, the treated blocks were soaked for one week in demineralized water in order to extract all traces of non-chelated boric acid or DOT.
(§4) After drying, the blocks were subjected to the laboratory “soil-block” culture test, strictly according to AWPA protocol E10-06.

Gleophyllum trabeum = assay: as above; assay type: cell-based; conditions: after 20 weeks of exposure, red pine sapwood blocks leached one week before the test
Experimental: as §1, §2, §3, §4

loss of boron ([1]; over a period of 8 days, red pine sapwood cubes): 67%
loss of boron ([1]; over a period of 15 days): 32%
Compound: OB(O)O [Boric acid, boric acid]
Weight loss (%) Postia placenta (Postia placenta): 67.5%
Weight loss (%) Postia placenta (Postia placenta; listed as boric acid): substantial loss
Weight loss (%) Gleophyllum trabeum (Gleophyllum trabeum): 67.5%
Weight loss (%) Gleophyllum trabeum (Gleophyllum trabeum; listed as boric acid): substantial loss
